Key:
[1] = system: atrophic acne scarring on the face; assay: Topical kynurenic acid (0.5% by weight) cream for reducing appearance of atrophic acne scarring (individual user reports); type: in vivo, human; conditions: person
Excerpt: FIG. 1A is a photographic representation of a target facial skin area of a subject with treatment-resistant stable atrophic scarring from acne before application of topical kynurenic acid (0.5% by weight) cream.
FIG. 1B is a photographic representation of the target facial skin area of the subject of FIG. 1A after bidaily use of topical kynurenic acid (0.5% by weight) for 8 weeks. […] The dashed black box in each image highlights the similar target area on the right cheek region in both images for comparison.
I. A topical cream was made as follows, kynurenic acid was solubilized in a phosphate buffered solution of 1 M NaOH and the pH was then adjusted to 5.5 at room temperature, this KynA solution was then added with steady mixing to a dermatological compounding base (Glaxal Base™, WellSpring, Ont., Canada) and adjusted to a pH of 6 before packaging in poly bottles. Topical cream was made at 0.15%, 0.25%, 0.4%, and 0.5% kynurenic acid by weight (Papp et al., 2018).
A person presented with significant atrophic acne scarring on the face and self-reported that their acne scars had been treatment resistant for >20 years. The person applied a topical cream containing 0.5% kynurenic acid by weight twice daily for a 3-month period to the site of the atrophic acne scarring, an application rate of approximately 17 ug of kynurenic acid per cm^2 of skin per application. Initial dermatological healing can be followed by visual inspection of the site. […] An illustrative image of the “before” and “during use” is shown as FIG. 1.
A person with atrophic acne scarring on the face self-reported that the scars were “mature”, “stable”, and had persisted for “>3 years”. The person applied a topical cream containing 0.5% kynurenic acid by weight once daily for a 2-month period at an application rate of approximately 2.5-5 micrograms kynurenic acid per square cm of skin per application.

dermal fibroblasts = conditions: cited from earlier work
[2] = system: rabbit ear hypertrophic scarring model; conditions: topical application to skin tissue; '523 FIG. 13; cited from earlier work

Compound	remarks of others on the user's atrophic acne scars ([1]; topical cream 0.5% by weight once daily, 2-month period)	user-reported appearance of holes and indents of atrophic acne scars ([1]; topical cream 0.5% by weight once daily, 2-month period, approx. 2.5-5 micrograms per square cm per application)	time at which the reported reduction in appearance started ([1]; topical cream 0.5% by weight twice daily)	unsolicited feedback from others on appearance of acne [atrophic scarring] ([1]; topical cream 0.5% by weight twice daily, 3-month period)	subject-reported perceived appearance of atrophic acne scarring ([1]; topical cream 0.5% by weight twice daily, 3-month period, approx. 17 ug per cm^2 per application)	MMP-1 expression (dermal fibroblasts; '523 FIG. 2)	MMP-3 expression (dermal fibroblasts; '523 FIG. 3)	collagen 1 expression (dermal fibroblasts; '523 FIG. 10)	fibronectin expression (dermal fibroblasts; '523 FIG. 16)	MMP-1 relative to controls [2]	collagen relative to controls [2]
O=C(O)c1cc(=O)c2ccccc2[nH]1 [kynurenic acid]	less visible or less noticeable	less visible and less noticeable and appeared to be filling in	approximately 2 weeks	markedly less apparent	significant reduction	increase	increase	downregulate	downregulate	–	–
Nc1ccccc1C(=O)CC(N)C(=O)O (racemic) [kynurenine]	–	–	–	–	–	–	–	–	–	increased	decreased
